The subject of data set [1] is MM.1S multiple myeloma cell line. As to the kind of experiment: CellTiter 96 AQueous One Solution cell proliferation assay, MM.1S. The settings on record: Homo sapiens, MM1.S, 72 h of treatment, read-out: Cytotoxicity Assay. Type of data set: cell-based. An excerpt:
The CellTiter 96® AQueous One Solution cell proliferation assay (Promega) was used on MM.1S multiple myeloma cell line to study the cytotoxic and cytostatic properties of the compounds. The assay is based on the cleavage of the tetrazolium salt, MTS, in the presence of an electron-coupling reagent PES (phenazine ethosulfate). The MTS tetrazolium compound is bioreduced by cells into a colored formazan product that is soluble in tissue culture medium. This conversion is presumably accomplished by NADPH or NADH produced by dehydrogenase enzymes in metabolically active cells. Assays are performed by adding a small amount of the CellTiter 96® AQueous One solution reagent directly to culture wells, incubating for 1-4 hours and then recording the absorbance at 490 nm with a 96-well plate reader.
The cells were seeded at 5×10^3 to 1.5×10^4 cells in each well of a 96-well plate in 100 μL of fresh culture medium and adherent cells were allowed to attach overnight. The stock solutions of the compounds were diluted in cell culture medium to obtain eight concentrations of each drug, ranging from 1 nM to 30 μM and DMSO at less than 1% v/v was used as a negative control. The resulting drug solutions were transferred onto the cells. After 72 h of treatment, 20 μl of CellTiter 96® AQueous reagent was added into each well of the 96-well assay plates and the plate was incubated at 37° C. for 1-4 hours in a humidified, 5% CO2 atmosphere. Then the absorbance of each well was recorded at 490 nm using a 96-well plate reader. In most cases, the assay was performed in triplicate and the results were presented as half maximal inhibitory concentration (IC50). Optical density versus compound concentration was plotted and analyzed using non-linear regression equations (IDBS XLfit) and the IC50 for each compound was calculated.

Data set [2] can be described thus: Pharmacokinetic (PK) assay, plasma AUC in mice. Type of data set: in vivo. The settings on record: 10 mg/kg po; for AUC(0-inf): mouse, plasma. The procedure: AUC. Blood was collected from mice (N=3) to contribute to the total of 10 time points (pre-dose, 5 min, 15 min, 30 min, 1 hour, 2 hours, 4 hours, 8 hours, 12 hours and 24 hours post dose). Mice were bled on a rotating basis, each mouse contributing 3 time points to the blood collection. At the designated time points, animals were anaesthetized under isoflurane, and approximately 110 μL of blood per time point was collected via retro-orbital puncture into pre-cooled K2EDTA (anti-coagulant) tubes. Blood samples were put on wet ice and centrifuged (2000 g, 5 min at 4° C.) to obtain plasma within 30 minutes of sample collection. All samples were stored frozen at approximately −80° C. until analysis. Prior to analysis, samples were mixed with internal standard (dexamethasone) in acetonitrile, vortexed, centrifuged, and supernatant was injected for analysis. Concentration of compounds in plasma was determined using LC-MS-MS instrumentation (API 4000, Triple Quadruple with electrospray ionization; Acuity Ultra Performance Liquid Chromatography column C18, with MeOH and formic acid as organic solvents). AUC values were calculated using WinNonlin Professional 6.2 software package, non-compartmental pharmacokinetic model NCA200.

A short description of data set [3]: Brain to Plasma (B:P) ratio in mice. Type of data set: in vivo. The settings on record: 10 mg/kg po, 2 hours post-dose; for Kp at 2 h: mouse, brain/plasma. The procedure:
Brain to Plasma (B:P) Ratio. […] Following collection, brain tissue was rinsed with cold saline, dried on filter paper, weighed and snap-frozen by placing on dry ice. All samples were stored frozen at approximately −80° C. until analysis. […] Plasma samples were treated with the identical method (except homogenization step) and the concentration of compound in each matrix was calculated based on generated standard curves.

The target of data set [4] is T1, CRM1-mediated nuclear export (Homo sapiens, UniProt O14980).
T1 construct: endogenous in cells; host or cells: U2OS-RevGFP cells
Briefly: RevGFP assay, inhibition of nuclear export. Type of data set: cell-based. The note with it: U2OS-RevGFP cells, about 1 hr incubation; read-out: Rev Export. The procedure:
The ability of exemplary compounds of the invention to inhibit CRM1-mediated nuclear export was assessed in a RevGFP assay. Rev is a protein from human immunodeficiency virus type 1 (HIV-1) and contains a nuclear export signal (NES) in its C-terminal domain and a nuclear localization signal (NLS) in its N-terminal domain. Nuclear export of Rev protein is dependent on the classical NES/CRM1 pathway (Neville et al. 1997).
In this assay, U2OS-RevGFP cells were seeded onto clear-bottomed, black, 384-well plates the day before the experiment. Compounds were serially diluted 1:2 in DMEM, starting from 40 μM in a separate, 384-well plate, and then transferred onto the cells. The cells were incubated with compound for about 1 hr before fixation with 3.7% formaldehyde and nuclei staining with Hoechst 33258. The amount of GFP in cell nuclei was measured and the IC50 of each compound was determined (Kau et al. 2003).

Molecules are shown by their SMILES. Structures can show the parent of a compound that is named as a salt.

T1 sequence (O14980 whole entry): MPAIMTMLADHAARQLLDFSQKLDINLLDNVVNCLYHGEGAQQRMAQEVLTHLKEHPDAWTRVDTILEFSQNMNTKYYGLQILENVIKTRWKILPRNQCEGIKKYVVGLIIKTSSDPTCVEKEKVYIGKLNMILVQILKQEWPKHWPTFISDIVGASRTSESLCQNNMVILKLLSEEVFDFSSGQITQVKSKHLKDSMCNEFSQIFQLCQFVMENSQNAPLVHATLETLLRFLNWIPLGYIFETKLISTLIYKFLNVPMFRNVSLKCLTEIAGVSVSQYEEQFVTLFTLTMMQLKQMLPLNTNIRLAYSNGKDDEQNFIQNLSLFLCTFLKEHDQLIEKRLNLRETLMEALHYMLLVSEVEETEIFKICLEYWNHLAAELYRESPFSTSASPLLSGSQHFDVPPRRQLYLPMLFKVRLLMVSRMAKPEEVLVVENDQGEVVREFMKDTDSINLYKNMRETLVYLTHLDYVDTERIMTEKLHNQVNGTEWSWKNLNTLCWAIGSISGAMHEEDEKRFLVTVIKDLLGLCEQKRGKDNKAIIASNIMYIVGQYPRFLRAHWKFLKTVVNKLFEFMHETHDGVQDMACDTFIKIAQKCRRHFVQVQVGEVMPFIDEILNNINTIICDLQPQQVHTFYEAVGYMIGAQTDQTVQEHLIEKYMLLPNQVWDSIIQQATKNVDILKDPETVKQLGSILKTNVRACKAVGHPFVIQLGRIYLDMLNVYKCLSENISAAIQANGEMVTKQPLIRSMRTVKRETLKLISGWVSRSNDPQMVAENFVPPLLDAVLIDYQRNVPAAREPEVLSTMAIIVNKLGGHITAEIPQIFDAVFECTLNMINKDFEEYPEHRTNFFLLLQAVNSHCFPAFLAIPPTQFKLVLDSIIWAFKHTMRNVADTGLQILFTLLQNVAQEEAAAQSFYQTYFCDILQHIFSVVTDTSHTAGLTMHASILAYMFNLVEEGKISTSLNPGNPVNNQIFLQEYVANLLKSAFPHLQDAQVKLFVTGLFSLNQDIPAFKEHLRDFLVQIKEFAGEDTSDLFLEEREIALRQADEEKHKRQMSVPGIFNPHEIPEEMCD

Turning to `O=C(/C=C\n1cnc(-c2cc(C(F)(F)F)cc(C(F)(F)F)c2)n1)NN1CCCC1` [Compound I-6, (Z)-3-(3-(3,5-bis(trifluoromethyl)phenyl)-1H-1,2,4-triazol-1-yl)-N-(pyrrolidin-1-yl)acrylamide], the IC50 in data set [1] is at most 1000 nM.

As to `CN(NC(=O)/C=C\n1cnc(-c2cc(C(F)(F)F)cc(C(F)(F)F)c2)n1)c1ccccn1` [Compound I-7, (Z)-3-(3-(3,5-bis(trifluoromethyl)phenyl)-1H-1,2,4-triazol-1-yl)-N‘-methyl-N’-(pyridin-2-yl)acrylohydrazide], the IC50 in data set [1] and in data set [4] was at most 1000 nM in each case. The compound further registered an AUC(0-inf) in data set [2] of 12200 ng·h/mL. Besides, the Kp at 2 h in data set [3] was 1.5.

On to `Cc1cccnc1N(C)NC(=O)/C=C\n1cnc(-c2cc(C(F)(F)F)cc(C(F)(F)F)c2)n1` [Compound I-9, (Z)-3-(3-(3,5-bis(trifluoromethyl)phenyl)-1H-1,2,4-triazol-1-yl)-N′-methyl-N′-(3-methylpyridin-2-yl)acrylohydrazide], for which the IC50 in data set [1] was at most 1000 nM.

With `Cc1ccc(NNC(=O)/C=C\n2cnc(-c3cc(C(F)(F)F)cc(C(F)(F)F)c3)n2)nc1` [Compound I-10, (Z)-3-(3-(3,5-bis(trifluoromethyl)phenyl)-1H-1,2,4-triazol-1-yl)-N′-(5-methylpyridin-2-yl)acrylohydrazide], in data set [1], the IC50 is at most 1000 nM. Besides, the AUC(0-inf) in data set [2] turned out to be 4170 ng·h/mL. Besides, in data set [3], the concentration ratio (Kp) at 2 h is 0.77.

In the case of `CN(NC(=O)/C=C\n1cnc(-c2cc(C(F)(F)F)cc(C(F)(F)F)c2)n1)c1cccnc1` [Compound I-11, (Z)-3-(3-(3,5-bis(trifluoromethyl)phenyl)-1H-1,2,4-triazol-1-yl)-N′-methyl-N′-(pyridin-3-yl)acrylohydrazide], the IC50 in data set [1] was at most 1000 nM.

Regarding `O=C(/C=C\n1cnc(-c2cc(C(F)(F)F)cc(C(F)(F)F)c2)n1)NNc1cccnc1` [Compound I-13, (Z)-3-(3-(3,5-bis(trifluoromethyl)phenyl)-1H-1,2,4-triazol-1-yl)-N′-(pyridin-3-yl)acrylohydrazide], the IC50 in data set [1] is at most 1000 nM.

Consider `O=C(/C=C\n1cnc(-c2cc(C(F)(F)F)cc(C(F)(F)F)c2)n1)NNc1cnc2ccccc2n1` [Compound I-14, (Z)-3-(3-(3,5-bis(trifluoromethyl)phenyl)-1H-1,2,4-triazol-1-yl)-N′-(quinoxalin-2-yl)acrylohydrazide], for which the IC50 in data set [1] was at most 1000 nM.

Regarding `O=C(/C=C\n1cnc(-c2cc(C(F)(F)F)cc(C(F)(F)F)c2)n1)NNC1CCS(=O)(=O)C1` (stereo not shown) [Compound I-15, (Z)-3-(3-(3,5-bis(trifluoromethyl)phenyl)-1H-1,2,4-triazol-1-yl)-N′-(1,1-dioxotetrahydrothiophen-3yl)acrylohydrazide], the IC50 in data set [1] was at most 1000 nM.

Turning to `O=C(/C=C\n1cnc(-c2cc(C(F)(F)F)cc(C(F)(F)F)c2)n1)NN1CCCCCC1` [Compound I-16, (Z)—N-(azepan-1-yl)-3-(3-(3,5-bis(trifluoromethyl)phenyl)-1H-1,2,4-triazol-1-yl)acrylamide], the IC50 in data set [1] is at most 1000 nM.

As to `Cc1cc(NNC(=O)/C=C\n2cnc(-c3cc(C(F)(F)F)cc(C(F)(F)F)c3)n2)nc(C)n1` [Compound I-17, (Z)-3-(3-(3,5-bis(trifluoromethyl)phenyl)-1H-1,2,4-triazol-1-yl)-N′-(2,6-dimethylpyrimidin-4-yl)acrylohydrazide], in data set [1], the IC50 is at most 1000 nM.

As for `O=C(/C=C/n1cnc(-c2cc(C(F)(F)F)cc(C(F)(F)F)c2)n1)NNc1cnccn1` [Compound I-18, (E)-3-(3-(3,5-bis(trifluoromethyl)phenyl)-1H-1,2,4-triazol-1-yl)-N′-(pyrazin-2-yl) acrylohydrazide], in data set [1], the IC50 was at most 1000 nM. The same compound came in with an AUC(0-inf) in data set [2] of 7140 ng·h/mL.

Turning to `O=C(/C=C\n1cnc(-c2cc(C(F)(F)F)cc(C(F)(F)F)c2)n1)NNc1ccncc1` [Compound I-19, (Z)-3-(3-(3,5-bis(trifluoromethyl)phenyl)-1H-1,2,4-triazol-1-yl)-N′-(pyridin-4-yl) acrylohydrazide hydrochloride], the IC50 in data set [1] is at most 1000 nM. The same compound displayed an AUC(0-inf) in data set [2] of 4020 ng·h/mL. Further, the Kp at 2 h in data set [3] is 0.2.

`O=C(/C=C\n1cnc(-c2cc(C(F)(F)F)cc(C(F)(F)F)c2)n1)NN1CCN(Cc2ccccc2)CC1` [Compound I-20, (Z)-N-(4-benzylpiperazin-1-yl)-3-(3-(3,5-bis(trifluoromethyl)phenyl)-1H-1,2,4-triazol-1-yl) acrylamide]: the IC50 in data set [1] is at most 1000 nM.

For `CCN1CCN(NC(=O)/C=C\n2cnc(-c3cc(C(F)(F)F)cc(C(F)(F)F)c3)n2)CC1` [Compound I-21, (Z)-3-(3-(3,5-bis(trifluoromethyl)phenyl)-1H-1,2,4-triazol-1-yl)-N-(4-ethylpiperazin-1-yl)acrylamide], the IC50 in data set [1] was at most 1000 nM.

For the compound `O=C(/C=C\n1cnc(-c2cc(C(F)(F)F)cc(C(F)(F)F)c2)n1)NN1CCOCC1` [Compound I-22, (Z)-3-(3-(3,5-bis(trifluoromethyl)phenyl)-1H-1,2,4-triazol-1-yl)-N-morpholinoacrylamide], in data set [1], the IC50 was at most 1000 nM.

For the compound `O=C(/C=C\n1cnc(-c2cc(C(F)(F)F)cc(C(F)(F)F)c2)n1)NNc1ccncn1` [Compound I-23, (Z)-3-(3-(3,5-bis(trifluoromethyl)phenyl)-1H-1,2,4-triazol-1-yl)-N′-(pyrimidin-4-yl)acrylohydrazide], the IC50 in data set [1] was at most 1000 nM.

Regarding `O=C(/C=C\n1cnc(-c2cc(C(F)(F)F)c(Cl)c(C(F)(F)F)c2)n1)NNc1cnccn1` [Compound I-24, (Z)-3-(3-(4-chloro-3,5-bis(trifluoromethyl)phenyl)-1H-1,2,4-triazol-1-yl)-N′-(pyrazin-2-yl)acrylohydrazide], the IC50 in data set [1] was at most 1000 nM. Further, in data set [2], the AUC(0-inf) worked out at 3350 ng·h/mL. For the same compound, the Kp at 2 h in data set [3] stood at 0.7.

Regarding `O=C(/C=C\n1cnc(-c2cc(C(F)(F)F)cc(C(F)(F)F)c2)n1)NNC1CC1` [Compound I-25, (Z)-3-(3-(3,5-bis(trifluoromethyl)phenyl)-1H-1,2,4-triazol-1-yl)-N′-cyclopropylacrylohydrazide], the IC50 in data set [1] is at most 1000 nM.

On to `O=C(/C=C\n1cnc(-c2cc(C(F)(F)F)cc(C(F)(F)F)c2)n1)NN1CC(O)C1` [Compound I-26, (Z)-3-(3-(3,5-bis(trifluoromethyl)phenyl)-1H-1,2,4-triazol-1-yl)-N-(3-hydroxyazetidin-1-yl)acrylamide], for which, in data set [1], the IC50 was at most 1000 nM.

As to `COc1cc(-c2ncn(/C=C\C(=O)OC(C)C)n2)cc(C(F)(F)F)c1` [Compound X-1, reference compound], the IC50 in data set [1] and in data set [4] was at most 1000 nM in each case. The AUCInf result in data set [2] (10 mg/kg) was “below the limit of detection”.

As for `CC(C)OC(=O)/C=C\n1cnc(-c2cc(OC(C)C)cc(C(F)(F)F)c2)n1` [Compound X-2, reference compound], the IC50 in data set [1] and in data set [4] was at most 1000 nM throughout.

Take `O=C(/C=C\n1cnc(-c2cc(C(F)(F)F)cc(C(F)(F)F)c2)n1)N1CC(F)(F)C1` [Compound X-3, reference compound]: the IC50 in data set [1] and in data set [4] was at most 1000 nM each time. Besides, in data set [3], the “B:P” value was 5.0.

What is called AUC(0-inf) is the area under the concentration-time curve extrapolated to infinity. The term Kp denotes the ratio of the level in a tissue or fluid to that in plasma or blood.
